Results from publication PMC4104029, “Mechanism of Action of Compound-13: An α1-Selective Small Molecule Activator of AMPK” (Chemistry & Biology, 2014).

Key:
adenylate kinase = assay: Adenylate kinase assay; assay type: biochemical; conditions: concentrations up to 100 μM; data not shown
Description: Additional enzyme assays. Glycogen phosphorylase (EC 2.4.1.1) was assayed in the physiological direction in reactions containing 20 mM BES pH 6.8, 20 mM phosphate, 1 mM NADP+, 0.5 mM MgCl2, 0.1 % glycogen, 4 µM glucose-1,6-bisphosphate, 0.5 mM DTT, 0.025 % BSA, 0.6 U/ml phosphoglucomutase and 3 U/ml glucose-6-phosphate dehydrogenase (G6PDH). FBP1 (EC 3.1.3.11) was assayed in reactions containing 50 mM TES pH 7.4, 0.1 […]
mM 2-mercaptoethanol, 25 µM fructose-1,6-bisphosphate, 0.8 U/ml phosphoglucoisomerase and 0.5 U/ml G6PDH. PFK1 (EC 2.7.1.11) was assayed in reactions containing 50 mM TES pH 7.4, 2 mM MgCl2, 0.05 % BSA, 2 mM 2-mercaptoethanol, 0.5 mM fructose-6-phosphate, 1 mM ATP, 0.2 mM NADH, 0.5 U/ml aldolase, 15 U/ml triosephosphate isomerase and 2 U/ml α-glycerophosphate dehydrogenase. […] All assays were performed in a final volume of 250 µl and were monitored by changes in fluorescence (FBP1 - λex 340nm, λem 450nm) or A340. […] Liberated phosphate was determined using malachite green reagent. […] The formation of pyrophosphate (PPi) was monitored by reduction of PPi-molybdate complexes using 2-mercaptoethanol and Fiske-Subbarow reducer (Kuang, et al., 2007). […]
Tricistronic expression vectors were constructed using a strategy inspired by Neumann et al (Neumann, et al., 2003). […] The open reading frame of AMPKα1 and AMPKα2 was inserted after the 6×His tag as a Bamh1-Not1 fragment. […]

α1-KO hepatocytes = assay: Lipid synthesis, [1-14C]acetate incorporation; assay type: cell-based, mouse; conditions: 1 μM
Description: Figure 6 C13 Is Relatively Selective for α1 Complexes in Primary Hepatocytes (A) Hepatocytes from WT, AMPKα1^−/−, and AMPKα2^−/− mice were treated with the indicated concentrations of C13 and labeled with [1-^14C]acetate for 3 hr. Rates of fatty acid and sterol synthesis were estimated from incorporation into saponifiable (upper graphs) and nonsaponifiable (lower graphs) lipids. Results are expressed as percentage WT vehicle and represent the mean ± SD for three independent experiments. (B) Mouse hepatocytes were incubated with the indicated concentrations of C13 for 3 hr, and lysates were analyzed using western blotting with the indicated antibodies.
Lipid synthesis was determined by labeling adherent cultures of primary hepatocytes with [1-^14C]acetate. After overnight culture, hepatocytes (5 × 10^5) were washed with warm PBS and allowed to rest for 3 hr in fresh M199. Cells were treated with vehicle (0.1% DMSO) or the indicated compounds and labeled with 1 mCi⋅mmol^−1 [1-^14C]acetate for 3 hr. […] Lipogenesis in hepatocytes from AMPKβ1/β2-KO mice was determined in media containing [^3H]acetate (0.2 mCi⋅mmol^−1). After 4 hr labeling, total lipids were extracted using the method of [Bligh and Dyer (1959)], and incorporated [^3H] was determined by scintillation counting. The results are expressed as micromoles acetate incorporated per gram-hour.

## O=P(O)(O)c1ccc(-c2cc(O)on2)o1 [Compound C2, 5-(5-hydroxyl-isoxazol-3-yl)-furan-2-phosphonic acid]
Adenylate kinase
  effect on enzyme activity: None of these enzymes were affected

## CC(C)C(=O)OCOP(=O)(OCOC(=O)C(C)C)c1ccc(C2=NOC(=O)C2)o1 [Compound C13]
α1-KO hepatocytes
  effect on synthesis of saponifiable and nonsaponifiable lipids: no effect
